# Measured values from patent publication US20120010148A1, “COMBINATION THERAPIES USING NAP” (ALLON THERAPEUTICS INC., priority 2008, published 2012).
# Entries after “also recorded” stand apart in the source; their conditions may differ.
# Columns and labels:
# STOP+/+ mice = assay: Behavioral tests in control STOP+/+ mice; format: in vivo, mouse
# Source text: For the initial comparisons of STOP+/− mice to STOP+/+ mice (littermates), each experimental group included 10-12 mice, 4-12 month-old; mean age 6 months, there were no highly significant differences between the tested ages in terms of the behavioral outcome). The STOP+/+ and STOP+/− male mice received daily (5 days a week) NAP nasal application vehicle as follows below for the duration of 7-10 weeks.
# The NAP vehicle solution (termed DD), included the following ingredients (per milliliter): 7.5 mg of NaCl, 1.7 mg of citric acid monohydrate, 3 mg of disodium phosphate dihydrate, and 0.2 mg of benzalkonium chloride solution (50%) (Alcalay R N et al., Neurosci Lett, 361(1-3): 128-131 (2004)). […]
# Locomotor activity was measured in 5 consecutive sessions, 3 minutes each and the mean path length in cm of each mouse in the 3 minute sessions per the entire 15 minute period of observation in open field (80 cm diameter) was determined. […]
# The test is based on visual discrimination between two different objects in an arena of 30 cm×40 cm. […] One hour after the daily intranasal NAP treatment, or clozapine injection, each male mouse was exposed to two identical objects for 5 minutes and the time spent sniffing/touching each object was measured (first daily session). […] The data was analyzed using two different methods. […]
# [1] = tested on: model of fetal alcohol syndrome; details: in vivo, ip; cited from earlier work
smiles,measurement,setting,value
CC[C@H](C)[C@H](NC(=O)[C@H](CO)NC(=O)[C@@H](NC(=O)[C@@H]1CCCN1C(=O)[C@H](C)NC(=O)[C@@H](N)CC(N)=O)C(C)C)C(=O)N1CCC[C@H]1C(=O)N[C@@H](CCC(N)=O)C(=O)O [NAP],open field locomotor activity in control mice,"STOP+/+ mice; STOP+/+ mice, NAP intranasal 0.5 μg/mouse/day",trend; also recorded: non-significant effect
same,cognitive performance of control mice,STOP+/+ mice; control mice treated with NAP,did not show improvement in their cognitive performance
same,fetal death after intraperitoneal injection of alcohol,[1],inhibited
